Test system: Influenza virus A/PR/8/34 (H1N1)
Assay: in vitro cytopathic effect (CPE) assay in MDCK cells
Type: cell-based
Conditions: H1N1|PR/8, 120 h; MDCK cells infected with Influenza virus A/PR/8/34 (H1N1), 5 days, cell viability by CCK8

Row | Compound | EC50
1 | O=C1c2c(O)c(=O)ccn2N([C@@H]2c3ccccc3SCc3cccc(F)c32)[C@@H]2[C@H]3C[C@@H]4CC[C@@]3(CCN12)O4 [Compound 3, (2S,4aS,14aR,14bR)-14-((S)-10-fluoro-6,11-dihydro-dibenzo[b,e]thiepin-11-yl)-9-hydroxy-1,3,4,5,6,14,14a,14b-octahydro-2H-2,4a-epoxypyrido[1′,2′:1,6][1,2,4]triazino[3,4-a]-isoquinoline-8,10-dione] | 2.1 nM
2 | O=C1c2c(O)c(=O)ccn2N([C@H]2c3ccccc3SCc3cccc(F)c32)[C@@H]2[C@H]3C[C@@H]4CC[C@@]3(CCN12)O4 [Compound 4, (2S,4aS,14aR,14bR)-14-((R)-10-fluoro-6,11-dihydro-dibenzo[b,e]thiepin-11-yl)-9-hydroxy-1,3,4,5,6,14,14a,14b-octahydro-2H-2,4a-epoxypyrido[1′,2′:1,6][1,2,4]triazino[3,4-a]-isoquinoline-8,10-dione] | 52 nM
3 | O=C1c2c(O)c(=O)ccn2N(C2c3cccc(F)c3CCc3c(F)cccc32)[C@@H]2[C@H]3C[C@@H]4CC[C@@]3(CCN12)O4 [Compound 9, (2S,4aS,14aR,14bR)-14-(1,9-difluoro-10,11-dihydro-5H-dibenzo[a,d][7]annulen-5-yl)-9-hydroxy-1,3,4,5,6,14,14a,14b-octahydro-2H-2,4a-epoxypyrido[1′,2′:1,6][1,2,4]triazino[3,4-a]-isoquinoline-8,10-dione] | 20 nM
4 | O=C1c2c(O)c(=O)ccn2N(C2c3ccc(F)cc3CCc3cc(F)ccc32)[C@@H]2[C@H]3C[C@@H]4CC[C@@]3(CCN12)O4 [Compound 10, (2S,4aS,14aR,14bR)-14-(2,8-difluoro-10,11-dihydro-5H-dibenzo[a,d][7]annulen-5-yl)-9-hydroxy-1,3,4,5,6,14,14a,14b-octahydro-2H-2,4a-epoxypyrido[1′,2′:1,6][1,2,4]triazino[3,4-a]-isoquinoline-8,10-dione] | 3.6 nM

From patent US20220177487A1, “FUSED POLYCYCLIC PYRIDONE COMPOUNDS AS INFLUENZA VIRUS REPLICATION INHIBITORS” (NIKANG THERAPEUTICS, INC., priority 2019, published 2022)
